{"source": "patent US20240059677A1", "about": "“SUBSTITUTED PYRIMIDINE DERIVATIVES AS NICOTINIC ACETYLCHOLINESTERASE RECEPTOR ALPHA 6 MODULATOR” (priority 2020, published 2024)"}
{"target": "T1, human nAChRα6-α3 chimera, in addition to β2 and β3^V273S subunits (Homo sapiens, UniProt P32297+Q15825)", "T1 construct": "expressed in transfected cells", "T1 sequence (Q05901 25-458 V273S)": "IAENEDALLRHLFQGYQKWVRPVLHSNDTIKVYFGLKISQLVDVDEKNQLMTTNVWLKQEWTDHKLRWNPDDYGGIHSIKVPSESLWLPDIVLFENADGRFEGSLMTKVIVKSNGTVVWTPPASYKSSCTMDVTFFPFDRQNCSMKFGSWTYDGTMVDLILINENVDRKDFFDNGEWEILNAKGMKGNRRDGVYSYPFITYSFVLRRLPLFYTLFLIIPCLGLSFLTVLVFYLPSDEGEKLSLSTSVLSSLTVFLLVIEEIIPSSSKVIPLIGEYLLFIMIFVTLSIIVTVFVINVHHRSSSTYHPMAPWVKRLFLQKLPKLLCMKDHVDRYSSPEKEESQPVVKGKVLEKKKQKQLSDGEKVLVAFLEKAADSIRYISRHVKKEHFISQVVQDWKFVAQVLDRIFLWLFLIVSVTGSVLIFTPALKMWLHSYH", "T1 sequence (P17787 26-502, stated change not applied, further chain)": "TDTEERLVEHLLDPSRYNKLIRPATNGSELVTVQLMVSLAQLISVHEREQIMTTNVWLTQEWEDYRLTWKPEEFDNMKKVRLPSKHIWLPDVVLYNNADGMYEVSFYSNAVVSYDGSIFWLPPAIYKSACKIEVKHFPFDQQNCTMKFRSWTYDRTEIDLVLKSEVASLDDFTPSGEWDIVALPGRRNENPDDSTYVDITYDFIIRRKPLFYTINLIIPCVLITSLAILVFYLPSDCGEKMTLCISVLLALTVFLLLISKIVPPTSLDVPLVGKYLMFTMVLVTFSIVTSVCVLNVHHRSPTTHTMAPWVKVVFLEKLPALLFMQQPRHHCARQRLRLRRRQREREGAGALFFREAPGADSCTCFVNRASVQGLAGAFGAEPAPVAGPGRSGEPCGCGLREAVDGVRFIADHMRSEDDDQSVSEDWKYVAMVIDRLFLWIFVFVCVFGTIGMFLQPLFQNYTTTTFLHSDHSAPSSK", "T1 sequence (Q15825+P32297 fused with the stated changes)": "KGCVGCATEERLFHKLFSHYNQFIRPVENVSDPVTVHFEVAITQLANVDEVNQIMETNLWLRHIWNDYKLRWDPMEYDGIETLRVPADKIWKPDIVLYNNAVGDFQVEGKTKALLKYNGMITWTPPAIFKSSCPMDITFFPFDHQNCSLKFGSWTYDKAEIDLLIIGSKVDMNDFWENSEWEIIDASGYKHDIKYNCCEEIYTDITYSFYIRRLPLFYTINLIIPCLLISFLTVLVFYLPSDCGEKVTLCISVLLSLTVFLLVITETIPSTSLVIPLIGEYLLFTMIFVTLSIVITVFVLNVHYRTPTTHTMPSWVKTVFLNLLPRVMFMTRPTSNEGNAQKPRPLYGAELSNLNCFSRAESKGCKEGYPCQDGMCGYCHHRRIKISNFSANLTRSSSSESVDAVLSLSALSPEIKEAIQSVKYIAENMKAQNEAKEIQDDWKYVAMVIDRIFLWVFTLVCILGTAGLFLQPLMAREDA", "experiment": "fluorescence-based calcium assay: inhibition of nicotine stimulated nAChRα6 activity (FLIPR)", "conditions": "HEK cell line stably expressing the receptor; 10 min pre-incubation, nicotine EC80; 10-point curve, duplicate wells; read-out: IC50", "procedure": "The ability of the test compounds to inhibit nicotine stimulated nAChRα6 activity was determined in a fluorescence-based calcium assay. Compound activity was determined using a HEK cell line stably expressing a human nAChRα6-α3 chimera, in addition to β2 and β3^V273S subunits (as in Capelli et al, Br J Pharmacol 163(2): 313-29 2011). In this cell line, nicotine stimulated an increase in intracellular calcium concentration, measured as an increase in fluorescence when cells were incubated with a calcium sensitive dye. Test compounds were pre-incubated with cells prior to nicotine stimulation to detect any reduction in the magnitude of the nicotine response.\nThe day prior to the assay, compounds were serially diluted in DMSO (200× final assay concentration (FAC)), in 384-well plates which were then stored in the dark at room temperature (RT) until use. Cells were seeded at 20 k/well in black, poly-D-lysine coated, clear bottom 384-well plates and incubated for 4 hours at 37° C., followed by overnight incubation at 30° C. The following day, the DMSO compound plate was diluted 1:20 (10×FAC) in assay buffer (HEPES buffered saline solution with 10 mM HEPES, 0.1% bovine serum albumin, 1 mM probenecid). A nicotine solution was prepared in assay buffer (7×FAC) and dispensed into a 384-well plate. The growth media was removed from the cell plate, replaced with 53 μl calcium dye/well (Calcium 5; Molecular Devices) and the plate incubated at 30° C. for 45 minutes. Test compounds were then added to the cells (7 μl of 10×FAC) and incubated for 10 minutes, after which nicotine EC80 (10 μl of 7×FAC) was added and changes in fluorescence measured using a FLIPR plate reader (Molecular Devices).\nCompound activity was examined using a 10-point, half-log concentration-response range and each concentration was tested in duplicate wells.", "units": {"IC50": "nM"}}
{"molecule": "COc1ccc(-c2nnc(NCC3CCCN3C)nc2C)c(F)c1", "note": "(racemic) [Example 18, 6-(2-fluoro-4-methoxyphenyl)-5-methyl-N-((1-methylpyrrolidin-2-yl)methyl)-1,2,4-triazin-3-amine]", "IC50": 526}
{"molecule": "Cc1nc(N[C@@H]2CNC[C@@H]2F)ncc1-c1ccc(C(F)(F)F)cc1F", "note": "(relative stereo) [Example 112, N-((cis)-4-fluoropyrrolidin-3-yl)-5-(2-fluoro-4-(trifluoromethyl)phenyl)-4-methyl-pyrimidin-2-amine]", "IC50": 107}
{"molecule": "Cc1nc(N[C@H]2CNC[C@@H]2F)ncc1-c1ccc(C(F)(F)F)cc1F", "note": "(relative stereo) [Example 114, N-((trans)-4-fluoropyrrolidin-3-yl)-5-(2-fluoro-4-(trifluoromethyl)phenyl)-4-methyl-pyrimidin-2-amine]", "IC50": 142}
{"molecule": "COc1ccc(-c2nnc(NCC3CCCN3C)nc2C)c(F)c1", "note": "(single isomer, unassigned) [Example 18a, 6-(2-fluoro-4-methoxyphenyl)-5-methyl-N-((1-methylpyrrolidin-2-yl)methyl)-1,2,4-triazin-3-amine]", "IC50": 331}
{"molecule": "COc1ccc(-c2nnc(NCC3CCCN3C)nc2C)c(F)c1", "note": "(single isomer, unassigned) [Example 18b, 6-(2-fluoro-4-methoxyphenyl)-5-methyl-N-((1-methylpyrrolidin-2-yl)methyl)-1,2,4-triazin-3-amine]", "IC50": 442}
{"molecule": "COc1ccc(-c2cnc(NCC3CCCN3C)nc2C)c(F)c1", "note": "(single isomer, unassigned) [Example 28a, 5-(2-fluoro-4-methoxyphenyl)-4-methyl-N-((1-methylpyrrolidin-2-yl)methyl)pyrimidin-2-amine]", "IC50": 54}
{"molecule": "COc1ccc(-c2cnc(NCC3CCCN3C)nc2C)c(F)c1", "note": "(single isomer, unassigned) [Example 28b, 5-(2-fluoro-4-methoxyphenyl)-4-methyl-N-((1-methylpyrrolidin-2-yl)methyl)pyrimidin-2-amine]", "IC50": 10}
{"molecule": "COc1ccc(-c2cnc(NC3CCC(N(C)C)C3)nc2C#N)c(F)c1", "note": "(single isomer, unassigned) [Example 38a, 2-((3-(dimethylamino)cyclopentyl)amino)-5-(2-fluoro-4-methoxyphenyl) pyrimidine-4-carbonitrile]", "IC50": 59}
{"molecule": "COc1ccc(-c2cnc(NC3CCC(N(C)C)C3)nc2C#N)c(F)c1", "note": "(single isomer, unassigned) [Example 38b, 2-((3-(dimethylamino)cyclopentyl)amino)-5-(2-fluoro-4-methoxyphenyl) pyrimidine-4-carbonitrile]", "IC50": 70}
{"molecule": "Cc1nc(NC2CCCC(N(C)C)C2)nnc1-c1ccc(F)cc1F", "note": "(single isomer, unassigned) [Example 39a, N^1-(6-(2,4-difluorophenyl)-5-methyl-1,2,4-triazin-3-yl)-N^3,N^3-dimethylcyclohexane-1,3-diamine]", "IC50": 904}
{"molecule": "Cc1nc(NC2CCCC(N(C)C)C2)nnc1-c1ccc(F)cc1F", "note": "(single isomer, unassigned) [Example 39b, N^1-(6-(2,4-difluorophenyl)-5-methyl-1,2,4-triazin-3-yl)-N^3,N^3-dimethylcyclohexane-1,3-diamine]", "IC50": 901}
{"molecule": "COc1ccc(-c2cnc(NC3CCC(N(C)C)C3)nc2C)c(F)c1", "note": "(single isomer, unassigned) [Example 44a, N^1-(5-(2-fluoro-4-methoxyphenyl)-4-methyl-pyrimidin-2-yl)-N^3,N^3-dimethylcyclopentane-1,3-diamine]", "IC50": 76}
{"molecule": "COc1ccc(-c2cnc(NC3CCC(N(C)C)C3)nc2C)c(F)c1", "note": "(single isomer, unassigned) [Example 44b, N^1-(5-(2-fluoro-4-methoxyphenyl)-4-methyl-pyrimidin-2-yl)-N^3,N^3-dimethylcyclopentane-1,3-diamine]", "IC50": 88}
{"molecule": "COc1ccc(-c2cnc(NC3CCCC(OC)C3)nc2C)c(F)c1", "note": "(single isomer, unassigned) [Example 53a, 5-(2-fluoro-4-methoxyphenyl)-N-(3-methoxycyclohexyl)-4-methyl-pyrimidin-2-amine]", "IC50": 1240}
{"molecule": "COc1ccc(-c2cnc(NC3CCCC(OC)C3)nc2C)c(F)c1", "note": "(single isomer, unassigned) [Example 53b, 5-(2-fluoro-4-methoxyphenyl)-N-(3-methoxycyclohexyl)-4-methyl-pyrimidin-2-amine]", "IC50": 734}
{"molecule": "COc1ccc(-c2nnc(NCC3CCCN3C)nc2C)c(F)c1", "note": "(single isomer, unassigned) [Example 54a, 6-(2-fluoro-4-methoxyphenyl)-5-methyl-N-((1-methylpyrrolidin-2-yl)methyl)-1,2,4-triazin-3-amine]", "IC50": 331}
{"molecule": "COc1ccc(-c2nnc(NCC3CCCN3C)nc2C)c(F)c1", "note": "(single isomer, unassigned) [Example 54b, 6-(2-fluoro-4-methoxyphenyl)-5-methyl-N-((1-methylpyrrolidin-2-yl)methyl)-1,2,4-triazin-3-amine]", "IC50": 442}
{"molecule": "Cc1nc(NC2CCCC(N(C)C)C2)ncc1-c1ccc(F)cc1F", "note": "(single isomer, unassigned) [Example 55a, N^1-(5-(2,4-difluorophenyl)-4-methyl-pyrimidin-2-yl)-N^3,N^3-dimethylcyclohexane-1,3-diamine]", "IC50": 98}
{"molecule": "Cc1nc(NC2CCCC(N(C)C)C2)ncc1-c1ccc(F)cc1F", "note": "(single isomer, unassigned) [Example 55b, N^1-(5-(2,4-difluorophenyl)-4-methyl-pyrimidin-2-yl)-N^3,N^3-dimethylcyclohexane-1,3-diamine]", "IC50": 81}
{"molecule": "COc1ccc(-c2cnc(NC3CCCC(N(C)C)C3)nc2C#N)c(F)c1", "note": "(single isomer, unassigned) [Example 56a, 2-((3-(dimethylamino)cyclohexyl)amino)-5-(2-fluoro-4-methoxyphenyl) pyrimidine-4-carbonitrile]", "IC50": 133}
{"molecule": "COc1ccc(-c2cnc(NC3CCCC(N(C)C)C3)nc2C#N)c(F)c1", "note": "(single isomer, unassigned) [Example 56b, 2-((3-(dimethylamino)cyclohexyl)amino)-5-(2-fluoro-4-methoxyphenyl) pyrimidine-4-carbonitrile]", "IC50": 162}
{"molecule": "COc1ccc(-c2nnc(NCC3CCCCN3C)nc2C)c(F)c1", "note": "(single isomer, unassigned) [Example 57a, 6-(2-fluoro-4-methoxyphenyl)-5-methyl-N-((1-methylpiperidin-2-yl)methyl)-1,2,4-triazin-3-amine]", "IC50": 139}
{"molecule": "COc1ccc(-c2nnc(NCC3CCCCN3C)nc2C)c(F)c1", "note": "(single isomer, unassigned) [Example 57b, 6-(2-fluoro-4-methoxyphenyl)-5-methyl-N-((1-methylpiperidin-2-yl)methyl)-1,2,4-triazin-3-amine]", "IC50": 144}
{"molecule": "CN(C)C1CCC(Nc2ncc(-c3ccc(F)cc3F)c(C#N)n2)C1", "note": "(single isomer, unassigned) [Example 58a, 5-(2,4-difluorophenyl)-2-((3-(dimethylamino)cyclopentyl)amino) pyrimidine-4-carbonitrile]", "IC50": 38}
{"molecule": "CN(C)C1CCC(Nc2ncc(-c3ccc(F)cc3F)c(C#N)n2)C1", "note": "(single isomer, unassigned) [Example 58b, 5-(2,4-difluorophenyl)-2-((3-(dimethylamino)cyclopentyl)amino) pyrimidine-4-carbonitrile]", "IC50": 56}
{"molecule": "CN(C)C1CCCC(Nc2ncc(-c3ccc(F)cc3F)c(C#N)n2)C1", "note": "(single isomer, unassigned) [Example 59a, 5-(2,4-difluorophenyl)-2-((3-(dimethylamino)cyclohexyl)amino) pyrimidine-4-carbonitrile]", "IC50": 202}
{"molecule": "CN(C)C1CCCC(Nc2ncc(-c3ccc(F)cc3F)c(C#N)n2)C1", "note": "(single isomer, unassigned) [Example 59b, 5-(2,4-difluorophenyl)-2-((3-(dimethylamino)cyclohexyl)amino) pyrimidine-4-carbonitrile]", "IC50": 134}
{"molecule": "Cc1nc(NC(C)C2CCN(C)C2)ncc1-c1ccc(F)cc1F", "note": "(single isomer, unassigned) [Example 64a, 5-(2,4-difluorophenyl)-4-methyl-N-(1-(1-methylpyrrolidin-3-yl)ethyl) pyrimidin-2-amine]", "IC50": 90}
{"molecule": "Cc1nc(NC(C)C2CCN(C)C2)ncc1-c1ccc(F)cc1F", "note": "(single isomer, unassigned) [Example 64b, 5-(2,4-difluorophenyl)-4-methyl-N-(1-(1-methylpyrrolidin-3-yl)ethyl) pyrimidin-2-amine]", "IC50": 88}
{"molecule": "Cc1nc(NC2CC(N(C)C)C2)ncc1-c1ccc(F)cc1F", "note": "(single isomer, unassigned) [Example 68a, N^1-(5-(2,4-difluorophenyl)-4-methyl-pyrimidin-2-yl)-N^3,N^3-dimethylcyclobutane-1,3-diamine]", "IC50": 78}
{"molecule": "Cc1nc(NC2CC(N(C)C)C2)ncc1-c1ccc(F)cc1F", "note": "(single isomer, unassigned) [Example 68b, N^1-(5-(2,4-difluorophenyl)-4-methyl-pyrimidin-2-yl)-N^3,N^3-dimethylcyclobutane-1,3-diamine]", "IC50": 67}
